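How tested: cells in 96-well plates exposed to compound for 48 hours at five concentrations. The concentration for 50% growth inhibition is given as GI50.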 Activity calls are given as the source filed them. Rule as the data show it: active = GI50 up to about 1.1 µM and inactive = higher.
How the values were obtained:
Assay in all cases: growth of human tumour cells (NCI), 48 h
OVCAR-4 = system: OVCAR-4
RPMI-8226 = system: RPMI-8226
NCI-H460 = system: NCI-H460
MDA-MB-231 = system: MDA-MB-231
MCF7 = system: MCF7
OVCAR-5 = system: OVCAR-5
TK-10 = system: TK-10
DU-145 = system: DU-145
OVCAR-8 = system: OVCAR-8
SNB-19 = system: SNB-19
NCI-H522 = system: NCI-H522
PC-3 = system: PC-3
HL-60 = system: HL-60
ACHN = system: ACHN
EKVX = system: EKVX
SF-539 = system: SF-539
MDA-MB-435 = system: MDA-MB-435
A498 = system: A498
Hs-578T = system: Hs-578T

Measured: GI50

C=CCCCN1C(=O)C2C3c4ccccc4C(C=O)(c4ccccc43)C2C1=O (configuration not stated)
inactive: OVCAR-4 11.4 µM | RPMI-8226 6.84 µM | NCI-H460 15.2 µM | MDA-MB-231 9.42 µM | MCF7 12.3 µM | OVCAR-5 18.9 µM | TK-10 16.1 µM | DU-145 11.4 µM | OVCAR-8 13.4 µM | SNB-19 13.1 µM | NCI-H522 8.57 µM | PC-3 6.18 µM | HL-60 9.89 µM | ACHN 13.6 µM | EKVX 6.03 µM

COCOc1ccc(C2(O)Oc3cc(OCOC)ccc3C2C)c(O)c1 (configuration not stated)
inactive: OVCAR-4 17.3 µM | RPMI-8226 11.7 µM | NCI-H460 13.4 µM | MDA-MB-231 12.3 µM | SF-539 15.7 µM | MCF7 14.3 µM | MDA-MB-435 14.9 µM | A498 15.5 µM | OVCAR-5 17.1 µM | TK-10 17.9 µM | DU-145 13.1 µM | OVCAR-8 16.8 µM | SNB-19 16 µM | NCI-H522 18.2 µM | PC-3 13.2 µM | HL-60 10.5 µM | ACHN 12.9 µM | EKVX 14.6 µM

COc1ccc(C)cc1Nc1nnc(-c2ccc(N)cc2)s1
inactive: OVCAR-4 > 100 µM | RPMI-8226 31.5 µM | NCI-H460 61.8 µM | SF-539 > 100 µM | MCF7 46.3 µM | MDA-MB-435 33.3 µM | A498 > 100 µM | OVCAR-5 68.7 µM | Hs-578T > 100 µM | DU-145 > 100 µM | OVCAR-8 87.3 µM | SNB-19 > 100 µM | NCI-H522 60.3 µM | PC-3 96.4 µM | HL-60 32.7 µM | ACHN > 100 µM | EKVX 2.65 µM

CC(=O)C1Cn2c(nc3ccccc32)C[Se]1 (configuration not stated)
inactive: OVCAR-4 3.44 µM | RPMI-8226 25.3 µM | NCI-H460 4.15 µM | SF-539 2.29 µM | A498 17.7 µM | OVCAR-5 3.05 µM | TK-10 4.41 µM | OVCAR-8 4.09 µM | SNB-19 5 µM | NCI-H522 3.28 µM | HL-60 2.47 µM | ACHN 3.39 µM | EKVX 15 µM

CC(=O)O[C@H]1CC[C@@]2(C)C(=CC[C@@H]3[C@@H]2CC[C@]2(C)C(=O)/C(=C\c4ccccc4)C[C@@H]32)C1
inactive: OVCAR-4 > 100 µM | RPMI-8226 > 100 µM | NCI-H460 > 100 µM | MDA-MB-231 > 100 µM | SF-539 > 100 µM | MCF7 > 100 µM | MDA-MB-435 > 100 µM | A498 > 100 µM | OVCAR-5 > 100 µM | TK-10 > 100 µM | DU-145 > 100 µM | OVCAR-8 > 100 µM | SNB-19 > 100 µM | NCI-H522 51.8 µM | PC-3 64.7 µM | ACHN > 100 µM | EKVX > 100 µM

NCc1ccc(O)c(O)c1
inactive: OVCAR-4 > 100 µM | RPMI-8226 > 100 µM | NCI-H460 > 100 µM | MDA-MB-231 > 100 µM | SF-539 > 100 µM | MCF7 > 100 µM | MDA-MB-435 > 100 µM | A498 > 100 µM | OVCAR-5 > 100 µM | DU-145 > 100 µM | OVCAR-8 > 100 µM | SNB-19 > 100 µM | PC-3 > 100 µM | HL-60 12.5 µM | ACHN > 100 µM | EKVX > 100 µM

COc1ccc(OC)c(NC(=O)C(=O)NNC(=O)c2sc(NNC(C)=O)nc2C)c1
inactive: OVCAR-4 26.3 µM | RPMI-8226 30.3 µM | NCI-H460 30.8 µM | SF-539 26.8 µM | A498 8.3 µM | OVCAR-5 72.4 µM | TK-10 88.3 µM | OVCAR-8 34.9 µM | SNB-19 59.4 µM | NCI-H522 18.2 µM | HL-60 36.2 µM | ACHN 29.2 µM | EKVX 37.5 µM

Cn1c2ccccc2n2c(=O)c3cccnc3c(C#N)c12
inactive: OVCAR-4 > 100 µM | RPMI-8226 > 100 µM | NCI-H460 18.7 µM | MDA-MB-231 > 100 µM | SF-539 66.4 µM | MDA-MB-435 > 100 µM | A498 > 100 µM | OVCAR-5 > 100 µM | TK-10 > 100 µM | DU-145 > 100 µM | OVCAR-8 40.3 µM | NCI-H522 14.7 µM | ACHN 31.1 µM | EKVX > 100 µM

Cc1sc2nc3n(c(=O)c2c1C)N=CN(c1ccc(Cl)cc1)C3
inactive: OVCAR-4 > 100 µM | RPMI-8226 > 100 µM | NCI-H460 > 100 µM | MDA-MB-231 > 100 µM | MDA-MB-435 > 100 µM | A498 > 100 µM | OVCAR-5 > 100 µM | TK-10 > 100 µM | DU-145 > 100 µM | OVCAR-8 > 100 µM | SNB-19 > 100 µM | NCI-H522 58.7 µM | PC-3 > 100 µM | ACHN > 100 µM | EKVX > 100 µM

NCCCCc1cc(O)c2c(c1O)C(=O)c1ccccc1C2=O
inactive: OVCAR-4 15.4 µM | RPMI-8226 7.13 µM | NCI-H460 10.5 µM | MDA-MB-231 9.1 µM | SF-539 6.75 µM | MCF7 5.41 µM | MDA-MB-435 22.6 µM | A498 18.2 µM | OVCAR-5 13.3 µM | TK-10 15.4 µM | DU-145 12 µM | OVCAR-8 5.09 µM | SNB-19 14.2 µM | NCI-H522 10 µM | PC-3 10.4 µM | ACHN 11.2 µM | EKVX 17.1 µM

NC(=O)CC1(O)C=CC(=O)C=C1
inactive: OVCAR-4 > 100 µM | RPMI-8226 > 100 µM | NCI-H460 > 100 µM | MDA-MB-231 > 100 µM | SF-539 > 100 µM | MCF7 > 100 µM | MDA-MB-435 > 100 µM | A498 > 100 µM | OVCAR-5 > 100 µM | TK-10 > 100 µM | DU-145 > 100 µM | OVCAR-8 > 100 µM | SNB-19 > 100 µM | NCI-H522 26.8 µM | PC-3 > 100 µM | HL-60 > 100 µM | ACHN > 100 µM | EKVX > 100 µM

Cn1c2ccccc2n2c3ncccc3c(=O)cc12
inactive: OVCAR-4 > 100 µM | RPMI-8226 48.1 µM | NCI-H460 33 µM | MDA-MB-231 96.8 µM | SF-539 45.9 µM | MDA-MB-435 61.5 µM | A498 24.6 µM | OVCAR-5 > 100 µM | TK-10 74.6 µM | DU-145 49.5 µM | OVCAR-8 46.3 µM | SNB-19 35.2 µM | NCI-H522 31.3 µM | ACHN 27 µM | EKVX 16.3 µM

C/C=C1\CNC1C(=O)O (configuration not stated)
inactive: OVCAR-4 > 100 µM | RPMI-8226 > 100 µM | NCI-H460 > 100 µM | SF-539 > 100 µM | MCF7 > 100 µM | MDA-MB-435 > 100 µM | A498 > 100 µM | OVCAR-5 > 100 µM | TK-10 > 100 µM | Hs-578T > 100 µM | OVCAR-8 > 100 µM | SNB-19 > 100 µM | PC-3 > 100 µM | HL-60 > 100 µM | ACHN > 100 µM | EKVX > 100 µM

CSc1ccc(/C=C2/C[N+](C)(C)C/C(=C/c3ccc(SC)cc3)C2=O)cc1
inactive: RPMI-8226 2.93 µM | SF-539 17.7 µM | OVCAR-5 23.4 µM | TK-10 50.7 µM | OVCAR-8 8.89 µM | NCI-H522 7.36 µM | HL-60 2.49 µM | ACHN 18 µM | EKVX 19.1 µM

COc1ccc(C2=NN(c3ccccc3)C(c3cc4cc(Br)ccc4nc3Cl)C2)cc1 (configuration not stated)
inactive: OVCAR-4 20.3 µM | RPMI-8226 > 25 µM | SF-539 > 25 µM | MDA-MB-435 14.3 µM | OVCAR-5 > 25 µM | Hs-578T > 25 µM | DU-145 > 25 µM | OVCAR-8 > 25 µM | SNB-19 > 25 µM | NCI-H522 16.7 µM | PC-3 23 µM | HL-60 > 25 µM | EKVX 11.9 µM

O=C(O)c1cc(=O)c2cc(C(=O)c3cccs3)c(Cl)c(Cl)c2o1
inactive: OVCAR-4 > 100 µM | RPMI-8226 > 100 µM | NCI-H460 > 100 µM | A498 > 100 µM | OVCAR-5 > 100 µM | TK-10 > 100 µM | OVCAR-8 > 100 µM | SNB-19 > 100 µM | NCI-H522 > 100 µM | HL-60 > 100 µM | ACHN > 100 µM | EKVX > 100 µM

COc1ccc(COCC(Cn2ccnc2)OCc2ccc(C(=O)O)cc2)cc1 (configuration not stated)
inactive: OVCAR-4 > 100 µM | RPMI-8226 > 100 µM | NCI-H460 > 100 µM | SF-539 > 100 µM | A498 > 100 µM | OVCAR-5 > 100 µM | TK-10 > 100 µM | OVCAR-8 > 100 µM | NCI-H522 > 100 µM | HL-60 > 100 µM | ACHN > 100 µM | EKVX > 100 µM

C=C(C)[C@H]1CC[C@@]23O[C@@H]2[C@@H](C[C@@]2(C)CC(=O)[C@H](CC(=O)C1)O2)OC(=O)[C@@]12CC[C@H](C(=C)C)CC(=O)C[C@H]4O[C@](C)(CC4=O)C[C@@H](OC3=O)[C@@H]1O2 [SINGARDIN]
inactive: OVCAR-4 > 100 µM | RPMI-8226 > 100 µM | MDA-MB-231 > 100 µM | SF-539 > 100 µM | MCF7 > 100 µM | MDA-MB-435 > 100 µM | A498 > 100 µM | OVCAR-5 > 100 µM | TK-10 > 100 µM | DU-145 > 100 µM | OVCAR-8 > 100 µM | SNB-19 > 100 µM | NCI-H522 > 100 µM | PC-3 > 100 µM | HL-60 > 100 µM | ACHN > 100 µM | EKVX > 100 µM

From ChEMBL document CHEMBL1201862, “PubChem BioAssay data set” (2004)
